Assay results: PubChem BioAssay (NCI)
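At the GI50, growth is halved. TGI: total growth inhibition.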

Columns and labels:
Experiment in all cases: NCI anticancer screen, dose series, 384-well format
OVCAR-5 ovarian = tested on: OVCAR-5 ovarian
SK-MEL-5 melanoma = tested on: SK-MEL-5 melanoma
CCRF-CEM leukemia = tested on: CCRF-CEM leukemia
CAKI-1 renal = tested on: CAKI-1 renal
HOP-62 NSCLC = tested on: HOP-62 NSCLC
NCI-H322M lung = tested on: NCI-H322M lung
SF-268 CNS = tested on: SF-268 CNS
UACC-257 melanoma = tested on: UACC-257 melanoma
UACC-62 melanoma = tested on: UACC-62 melanoma
HOP-92 NSCLC = tested on: HOP-92 NSCLC
T-47D breast = tested on: T-47D breast
EKVX NSCLC = tested on: EKVX NSCLC
U251 glioblastoma = tested on: U251 glioblastoma

`CC(C)C[C@H](NC(=O)[C@H](Cc1ccccc1)NC(=O)c1cnccn1)B(O)O` was tested. Which GI50 (OVCAR-5 ovarian) did it give?
Its GI50 is under 10 nM.

What about the TGI (OVCAR-5 ovarian) of the same molecule?
Its TGI is under 16.3 nM.

And the GI50 (SK-MEL-5 melanoma)?
Its GI50 is under 10 nM.

And the TGI (SK-MEL-5 melanoma)?
Its TGI is under 10 nM.

And the GI50 (CCRF-CEM leukemia)?
Its GI50 is under 10 nM.

What about the TGI (CCRF-CEM leukemia) of the same molecule?
The TGI was under 10 nM.

What about the GI50 (CAKI-1 renal) of the same molecule?
Its GI50 is under 10 nM.

What about the TGI (CAKI-1 renal) of the same molecule?
The TGI was under 12 nM.

What about the GI50 (HOP-62 NSCLC) of the same molecule?
The GI50 was under 10 nM.

And the TGI (HOP-62 NSCLC)?
The TGI was under 12.5 nM.

And the GI50 (NCI-H322M lung)?
The GI50 was 17.7 nM.

What about the TGI (NCI-H322M lung) of the same molecule?
The TGI was 91.8 nM.

What about the GI50 (SF-268 CNS) of the same molecule?
Its GI50 is under 10 nM.

And the TGI (SF-268 CNS)?
The TGI was under 10 nM.

And the GI50 (UACC-257 melanoma)?
Its GI50 is under 10 nM.

What about the TGI (UACC-257 melanoma) of the same molecule?
The TGI was under 10 nM.

And the GI50 (UACC-62 melanoma)?
Its GI50 is under 10 nM.

And the TGI (UACC-62 melanoma)?
The TGI was under 10 nM.

And the GI50 (HOP-92 NSCLC)?
Its GI50 is under 10 nM.

And the TGI (HOP-92 NSCLC)?
Its TGI is under 10 nM.

What about the GI50 (T-47D breast) of the same molecule?
Its GI50 is under 10 nM.

And the TGI (T-47D breast)?
The TGI was under 10 nM.

What about the GI50 (EKVX NSCLC) of the same molecule?
Its GI50 is under 10 nM.

And the TGI (EKVX NSCLC)?
Its TGI is under 19 nM.

What about the GI50 (U251 glioblastoma) of the same molecule?
The GI50 was under 11.1 nM.

And the TGI (U251 glioblastoma)?
Its TGI is 18.9 nM.
